Laboratory results: US12692238B2, “Substituted pyridazinone herbicides” (FMC CORPORATION, priority 2020, dated 2026)

What was measured:
Format in all cases: in vivo
[1] = test system: barnyardgrass (Echinochloa crus-galli); assay: Test B flooded paddy test, barnyardgrass; settings: 250 g ai/ha, Flood; visually evaluated after 10 to 14 days
Procedure: (§1) Plant species in the flooded paddy test selected from barnyardgrass (Echinochloa crus-galli), ducksalad (Heteranthera limosa), rice (Oryza sativa), and sedge, umbrella (small-flower umbrella sedge, Cyperus difformis) were grown to the 2-leaf stage for testing. At time of treatment, test pots were flooded to 3 cm above the soil surface, treated by application of test compounds directly to the paddy water, and then maintained at that water depth for the duration of the test. Treated plants and controls were maintained in a greenhouse for 10 to 14 days, after which time all species were compared to controls and visually evaluated. Plant response ratings, summarized in Table B, are based on a scale of 0 to 100 where 0 is no effect and 100 is complete control. A dash (-) response means no test result.

corn (Zea mays) = assay: Test A postemergence, corn; settings: Postemergence, 0 to 100 scale, 10 days
Source text: (§2) Seeds of plant species selected from barnyardgrass (Echinochloa crus-galli), blackgrass (Alopecurus myosuroides), corn (Zea mays), foxtail, giant (giant foxtail, Setaria faberi), foxtail, green (green foxtail, Setaria viridis), goosegrass (Eleusine indica), kochia (Bassia scoparia), oat, wild (wild oat, Avena fatua), palmer amaranth (pigweed, palmer, Amaranthus palmeri), redroot pigweed (Amaranthus retroflexus), ragweed (common ragweed, Ambrosia artemisiifolia), ryegrass, Italian (Italian ryegrass, Lolium multiflorum), and soybean (Glycine max) were planted into a blend of loam soil and sand and treated preemergence with a directed soil spray using test chemicals formulated in a non-phytotoxic solvent mixture which included a surfactant.
(§3) At the same time, plants selected from these crop and weed species and also wheat (Triticum aestivum), galium (catchweed bedstraw, Galium aparine) and horseweed (Erigeron canadensis) were planted in pots containing the same blend of loam soil and sand and treated with postemergence applications of test chemicals formulated in the same manner. Plants ranged in height from 2 to 10 cm and were in the one- to two-leaf stage for the postemergence treatment. Treated plants and untreated controls were maintained in a greenhouse for 10 days, after which time all treated plants were compared to untreated controls and visually evaluated for injury. Plant response ratings, summarized in Table A, are based on a 0 to 100 scale where 0 is no effect and 100 is complete control. A dash (-) response means no test result.

[2] = test system: ryegrass, Italian (Italian ryegrass, Lolium multiflorum); assay: Test A preemergence, ryegrass, Italian; settings: 0 to 100 scale, 10 days
Source text: as §2, §3

[3] = test system: ryegrass, Italian (Italian ryegrass, Lolium multiflorum); assay: Test A postemergence, ryegrass, Italian; settings: 10 days
Source text: as §2, §3

[4] = test system: redroot pigweed (Amaranthus retroflexus); assay: Test A preemergence, redroot pigweed; settings: 0 to 100 scale, 10 days
Source text: as §2, §3

[5] = test system: sedge, umbrella (small-flower umbrella sedge, Cyperus difformis); assay: Test B flooded paddy test, sedge, umbrella; settings: 250 g ai/ha, Flood; visually evaluated after 10 to 14 days
Procedure: as §1

[6] = test system: blackgrass (Alopecurus myosuroides); assay: Test A postemergence, blackgrass; settings: Postemergence, 0 to 100 scale, 10 days
Source text: as §2, §3

[7] = test system: wheat (Triticum aestivum); assay: Test A postemergence, wheat; settings: 10 days
Source text: as §2, §3

[8] = test system: barnyardgrass (Echinochloa crus-galli); assay: Test A preemergence, barnyardgrass; settings: 10 days
Source text: as §2, §3

[9] = test system: redroot pigweed (Amaranthus retroflexus); assay: Test A postemergence, redroot pigweed; settings: 10 days
Source text: as §2, §3

kochia (Bassia scoparia) [10] = assay: Test A postemergence, kochia; settings: 10 days
Source text: as §2, §3

kochia (Bassia scoparia) [11] = assay: Test A preemergence, kochia; settings: 0 to 100 scale, 10 days
Source text: as §2, §3

[12] = test system: barnyardgrass (Echinochloa crus-galli); assay: Test A postemergence, barnyardgrass; settings: Postemergence, 0 to 100 scale, 10 days
Source text: as §2, §3

[13] = test system: foxtail, giant (giant foxtail, Setaria faberi); assay: Test A preemergence, foxtail, giant; settings: 0 to 100 scale, 10 days
Source text: as §2, §3

[14] = test system: foxtail, giant (giant foxtail, Setaria faberi); assay: Test A postemergence, foxtail, giant; settings: Postemergence, 0 to 100 scale, 10 days
Source text: as §2, §3

[15] = test system: ragweed (common ragweed, Ambrosia artemisiifolia); assay: Test A postemergence, ragweed; settings: 10 days
Source text: as §2, §3

[16] = test system: galium (catchweed bedstraw, Galium aparine); assay: Test A postemergence, galium; settings: 10 days
Source text: as §2, §3

[17] = test system: ducksalad (Heteranthera limosa); assay: Test B flooded paddy test, ducksalad; settings: 250 g ai/ha, Flood; visually evaluated after 10 to 14 days
Procedure: as §1

rice (Oryza sativa) = assay: Test B flooded paddy test, rice; settings: 250 g ai/ha, Flood; visually evaluated after 10 to 14 days
Procedure: as §1

[18] = test system: ragweed (common ragweed, Ambrosia artemisiifolia); assay: Test A preemergence, ragweed; settings: 0 to 100 scale, 10 days
Source text: as §2, §3

[19] = 31 g ai/ha, postemergence, 0 to 100 scale (0 no effect, 100 complete control)
[20] = Postemergence, 125 g ai/ha, 0 to 100 scale
[21] = 125 g ai/ha, 0 to 100 scale (0 no effect, 100 complete control)

CC(=O)OCOc1c(C)nn(C)c(=O)c1-c1c2ccccc2c(Cl)c2ccccc12 [Compound 12]
Plant response rating, Barnyardgrass (0 to 100 scale where 0 is no effect and 100 is complete control) [1]: 0
Plant response rating, Corn (corn (Zea mays); 31 g ai/ha): 0
Plant response rating, Corn (corn (Zea mays); 125 g ai/ha): 10
Plant response rating, Ryegrass, Italian ([2]; 31 g ai/ha): 70
Plant response rating, Ryegrass, Italian ([2]; 125 g ai/ha): 90
Plant response rating, Ryegrass, Italian [3, 19]: 80
Plant response rating, Ryegrass, Italian [3, 20]: 100
Plant response rating, Pigweed, Redroot ([4]; 31 g ai/ha): 100
Plant response rating, Pigweed, Redroot ([4]; 125 g ai/ha): 100
Plant response rating, Sedge, Umbrella (0 to 100 scale where 0 is no effect and 100 is complete control) [5]: 85
Plant response rating, Blackgrass ([6]; 31 g ai/ha): 0
Plant response rating, Blackgrass ([6]; 125 g ai/ha): 30
Plant response rating, Wheat [7, 19]: 0
Plant response rating, Wheat [7, 20]: 10
Plant response rating, Barnyardgrass ([8]; 31 g ai/ha, 0 to 100 scale): 20
Plant response rating, Barnyardgrass [8, 21]: 90
Plant response rating, Pigweed, Redroot [9, 19]: 100
Plant response rating, Pigweed, Redroot [9, 20]: 100
Plant response rating, Kochia (kochia (Bassia scoparia) [10]; [19]): 40
Plant response rating, Kochia (kochia (Bassia scoparia) [10]; [20]): 80
Plant response rating, Kochia (kochia (Bassia scoparia) [11]; 31 g ai/ha): 0
Plant response rating, Kochia (kochia (Bassia scoparia) [11]; 125 g ai/ha): 100
Plant response rating, Barnyardgrass ([12]; 31 g ai/ha): 10
Plant response rating, Barnyardgrass ([12]; 125 g ai/ha): 60
Plant response rating, Foxtail, Giant ([13]; 31 g ai/ha): 10
Plant response rating, Foxtail, Giant ([13]; 125 g ai/ha): 80
Plant response rating, Foxtail, Giant ([14]; 31 g ai/ha): 20
Plant response rating, Foxtail, Giant ([14]; 125 g ai/ha): 80
Plant response rating, Ragweed [15, 19]: 90
Plant response rating, Ragweed [15, 20]: 100
Plant response rating, Galium [16, 19]: 100
Plant response rating, Galium [16, 20]: 100
Plant response rating, Ducksalad (0 to 100 scale where 0 is no effect and 100 is complete control) [17]: 70
Plant response rating, Rice (0 to 100 scale where 0 is no effect and 100 is complete control) (rice (Oryza sativa)): 0
Plant response rating, Ragweed ([18]; 31 g ai/ha): 60
Plant response rating, Ragweed ([18]; 125 g ai/ha): 80

CC(=O)OCOc1c(C)nn(C)c(=O)c1-c1c2ccccc2cc2ccccc12 [Compound 13]
Plant response rating, Barnyardgrass (0 to 100 scale where 0 is no effect and 100 is complete control) [1]: 0
Plant response rating, Corn (corn (Zea mays); 31 g ai/ha): 0
Plant response rating, Corn (corn (Zea mays); 125 g ai/ha): 0
Plant response rating, Ryegrass, Italian ([2]; 31 g ai/ha): 30
Plant response rating, Ryegrass, Italian ([2]; 125 g ai/ha): 70
Plant response rating, Ryegrass, Italian [3, 19]: 70
Plant response rating, Ryegrass, Italian [3, 20]: 100
Plant response rating, Pigweed, Redroot ([4]; 31 g ai/ha): 100
Plant response rating, Pigweed, Redroot ([4]; 125 g ai/ha): 100
Plant response rating, Sedge, Umbrella (0 to 100 scale where 0 is no effect and 100 is complete control) [5]: 0
Plant response rating, Blackgrass ([6]; 31 g ai/ha): 0
Plant response rating, Blackgrass ([6]; 125 g ai/ha): 40
Plant response rating, Wheat [7, 19]: 0
Plant response rating, Wheat [7, 20]: 0
Plant response rating, Barnyardgrass ([8]; 31 g ai/ha, 0 to 100 scale): 0
Plant response rating, Barnyardgrass [8, 21]: 30
Plant response rating, Pigweed, Redroot [9, 19]: 100
Plant response rating, Pigweed, Redroot [9, 20]: 100
Plant response rating, Kochia (kochia (Bassia scoparia) [10]; [19]): 10
Plant response rating, Kochia (kochia (Bassia scoparia) [10]; [20]): 50
Plant response rating, Kochia (kochia (Bassia scoparia) [11]; 31 g ai/ha): 0
Plant response rating, Kochia (kochia (Bassia scoparia) [11]; 125 g ai/ha): 0
Plant response rating, Barnyardgrass ([12]; 31 g ai/ha): 10
Plant response rating, Barnyardgrass ([12]; 125 g ai/ha): 40
Plant response rating, Foxtail, Giant ([13]; 31 g ai/ha): 0
Plant response rating, Foxtail, Giant ([13]; 125 g ai/ha): 20
Plant response rating, Foxtail, Giant ([14]; 31 g ai/ha): 10
Plant response rating, Foxtail, Giant ([14]; 125 g ai/ha): 60
Plant response rating, Ragweed [15, 19]: 90
Plant response rating, Ragweed [15, 20]: 100
Plant response rating, Galium [16, 19]: 100
Plant response rating, Galium [16, 20]: 100
Plant response rating, Ducksalad (0 to 100 scale where 0 is no effect and 100 is complete control) [17]: 0
Plant response rating, Rice (0 to 100 scale where 0 is no effect and 100 is complete control) (rice (Oryza sativa)): 0
